Data: ChEMBL document CHEMBL5233244, “Therapeutic potential of targeting α/β-Hydrolase domain-containing 6 (ABHD6)” (Eur J Med Chem, 2020)

Tests used:
[1] = target: T1, Monoacylglycerol lipase ABHD6 (Homo sapiens, UniProt Q9BV23); assay: Inhibition of human recombinant ABHD6
T1 sequence (Q9BV23 whole entry): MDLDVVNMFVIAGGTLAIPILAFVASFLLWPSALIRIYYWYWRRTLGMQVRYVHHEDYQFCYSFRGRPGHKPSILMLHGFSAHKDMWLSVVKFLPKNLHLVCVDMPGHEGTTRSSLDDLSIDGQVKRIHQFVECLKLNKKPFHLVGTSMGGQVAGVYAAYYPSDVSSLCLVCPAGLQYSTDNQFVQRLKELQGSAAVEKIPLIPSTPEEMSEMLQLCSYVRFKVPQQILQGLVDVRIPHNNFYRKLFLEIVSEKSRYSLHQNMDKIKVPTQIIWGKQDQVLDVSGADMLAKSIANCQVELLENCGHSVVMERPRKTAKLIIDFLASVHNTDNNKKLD

[2] = target: T2, Monoacylglycerol lipase ABHD6 (Mus musculus, UniProt Q8R2Y0); assay: Inhibition of ABHD6 in mouse brain membrane using HT-01 probe as substrate incubated for 30 mins by gel based competitive ABPP assay; type: cell membranes
T2 sequence (Q8R2Y0 whole entry): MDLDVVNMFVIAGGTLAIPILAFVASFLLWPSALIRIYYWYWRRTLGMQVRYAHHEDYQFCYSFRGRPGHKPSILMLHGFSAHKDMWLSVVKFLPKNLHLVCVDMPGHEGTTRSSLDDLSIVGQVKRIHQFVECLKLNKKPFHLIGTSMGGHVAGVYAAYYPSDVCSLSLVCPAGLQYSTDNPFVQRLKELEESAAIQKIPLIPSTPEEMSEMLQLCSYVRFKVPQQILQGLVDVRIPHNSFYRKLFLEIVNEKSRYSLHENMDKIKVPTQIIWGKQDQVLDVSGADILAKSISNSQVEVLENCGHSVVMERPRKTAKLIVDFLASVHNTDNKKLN

[3] = target: T3, Monoacylglycerol lipase ABHD6 (Mus musculus) (UniProt Q8R2Y0); assay: Inhibition of ABHD6 in mouse brain membrane using FP-biotin as substrate at 10 uM incubated for 1 hr by LC-MS based ABPP-MudPIT analysis; type: cell membranes
T3 sequence (whole entry): T2 sequence (Q8R2Y0 whole entry)

[4] = target: T2, Monoacylglycerol lipase ABHD6; assay: Inhibition of mouse ABHD6 expressed in COS-7 cells using 2-[3H]AG as substrate incubated for 30 mins by liquid scintillation analysis; type: cell-based
[5] = target: T4, Fatty-acid amide hydrolase 1 (Mus musculus, UniProt O08914); assay: Inhibition of mouse FAAH expressed in COS-7 cells using [3H]AEA as substrate incubated for 30 mins by liquid scintillation analysis; type: cell-based
T4 sequence (O08914 whole entry): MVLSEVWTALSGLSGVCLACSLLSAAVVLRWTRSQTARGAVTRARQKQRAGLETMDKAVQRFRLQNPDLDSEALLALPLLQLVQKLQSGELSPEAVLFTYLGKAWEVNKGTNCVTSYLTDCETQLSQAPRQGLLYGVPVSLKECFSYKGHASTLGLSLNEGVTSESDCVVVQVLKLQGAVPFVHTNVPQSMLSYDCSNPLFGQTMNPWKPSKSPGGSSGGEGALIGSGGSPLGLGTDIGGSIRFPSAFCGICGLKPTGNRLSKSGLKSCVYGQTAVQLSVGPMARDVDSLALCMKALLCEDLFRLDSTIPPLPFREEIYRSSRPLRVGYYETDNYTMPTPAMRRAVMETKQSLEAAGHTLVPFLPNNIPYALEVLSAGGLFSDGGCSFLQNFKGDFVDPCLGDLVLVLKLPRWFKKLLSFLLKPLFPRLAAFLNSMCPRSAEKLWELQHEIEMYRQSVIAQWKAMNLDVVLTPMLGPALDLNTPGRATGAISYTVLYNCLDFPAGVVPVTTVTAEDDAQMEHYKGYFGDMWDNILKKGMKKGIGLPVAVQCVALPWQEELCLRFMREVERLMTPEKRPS

[6] = target: T3, Monoacylglycerol lipase ABHD6 (Mus musculus); assay: Inhibition of ABHD6 in mouse Primary neuron cells using 2-[3H]AG as substrate at 30 uM incubated for 30 mins by liquid scintillation analysis; type: cell-based
[7] = target: T5, Fatty-acid amide hydrolase 1 (Mus musculus) (UniProt O08914); assay: Inhibition of FAAH in mouse Primary neuron cells using [3H]AEA as substrate at 30 uM incubated for 30 mins by liquid scintillation analysis; type: cell-based
T5 sequence (whole entry): T4 sequence (O08914 whole entry)

Monoglyceride lipase = target: T6, Monoglyceride lipase (Mus musculus, UniProt O35678); assay: Inhibition of mouse MAGL expressed in COS-7 cells using 2-[3H]AG as substrate incubated for 30 mins by liquid scintillation analysis; type: cell-based
T6 sequence (O35678 whole entry): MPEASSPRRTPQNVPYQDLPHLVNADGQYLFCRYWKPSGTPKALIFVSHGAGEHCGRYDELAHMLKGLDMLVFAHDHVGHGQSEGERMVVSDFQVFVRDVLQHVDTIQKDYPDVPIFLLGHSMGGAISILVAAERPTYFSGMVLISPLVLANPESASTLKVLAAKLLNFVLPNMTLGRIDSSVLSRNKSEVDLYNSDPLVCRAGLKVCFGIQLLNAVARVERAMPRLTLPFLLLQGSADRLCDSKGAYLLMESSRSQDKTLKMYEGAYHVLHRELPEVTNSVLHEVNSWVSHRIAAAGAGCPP

[8] = target: T2, Monoacylglycerol lipase ABHD6; assay: Inhibition of ABHD6 in mouse brain membrane using FP-biotin as substrate incubated for 1 hr by LC-MS based ABPP-MudPIT analysis; type: cell membranes
[9] = target: T1, Monoacylglycerol lipase ABHD6; assay: Inhibition of ABHD6 (unknown origin)

For C#CCO[C@@H]1CC[C@H](Cc2ccccc2)N(C(=O)n2ncc(C(O)(c3ccc(F)cc3)c3ccc(F)cc3)n2)C1, which IC50 [1] is on record?
The IC50 was 2.8 nM.

And the IC50 [2]?
Its IC50 is 126 nM.

CN(Cc1cccc(-c2ccncc2)c1)C(=O)Oc1ccc(-c2ccc(C(N)=O)cc2)cc1 was tested. Which inhibition [3] did it give?
Its inhibition is 90%.

For CCCCCC/C=C\CCCCCCCC(=O)OCC1CO1 (stereo not given), which IC50 [4] is on record?
The IC50 was 2400 nM.

What about the IC50 [5] of the same compound?
The IC50 was 4000 nM.

What about the inhibition [6] of the same compound?
The inhibition was 30%.

What about the inhibition [7] of the same compound?
Its inhibition is 60%.

For CC/C=C\C/C=C\C/C=C\CCCCCCCC(=O)OCC1CO1 (stereo not given), which IC50 [4] is on record?
Its IC50 is 800 nM.

What about the IC50 (Monoglyceride lipase) of the same compound?
Its IC50 is 270000 nM.

What about the IC50 [5] of the same compound?
The IC50 was 900 nM.

Which results are given for CC(C)(C)OC(=O)N1CCN(C(=O)n2cc(-c3ccc(OC(F)(F)F)cc3)nn2)C(Cc2ccccc2)C1 (stereo not given)?
IC50 [1]: 3.6 nM; IC50 [2]: 79 nM

How did the IC50 [8] turn out when CN(Cc1cccc(-c2ccccc2)c1)C(=O)Oc1ccc(-c2ccc(C(N)=O)cc2)cc1 was run?
The IC50 was 430 nM.

For CC(C)(C)OC(=O)N1CCN(C(=O)n2cc(-c3ccc(OC(F)(F)F)cc3)nn2)C(c2ccccc2)C1 (stereo not given), which IC50 [2] is on record?
Its IC50 is 20 nM.

COC(=O)[C@]1(C)CC[C@]2(C)CC[C@]3(C)C4=CC=C5C(=CC(=O)C(O)=C5C)[C@]4(C)CC[C@@]3(C)[C@@H]2C1 [PRISTIMERIN] was tested. Which IC50 [9] did it give?
Its IC50 is 1300 nM.
